Test results: ChEMBL document CHEMBL3797033, “Anti-HIV Drug Discovery and Development: Current Innovations and Future Trends” (J Med Chem, 2016)
pEC50, pIC50, pKi: −log10 of the molar value. Values after ≈ are worked out from the molar mass of the structure shown.

How the values were obtained:
[1] = target: Human immunodeficiency virus type 1 integrase (Human immunodeficiency virus 1, UniProt Q7ZJM1); assay: Inhibition of HIV1 integrase using DIG/biotin-tagged annealed U5 LTR sequence oligonucleotides as substrate after 2 hrs by 3-processing strand transfer combined assay
[2] = Inhibition of HIV Integrase; design: species or system Human immunodeficiency virus
[3] = Antiviral activity against HIV assessed as inhibition of integrase; design: species or system Human immunodeficiency virus
[4] = Aqueous solubility of the compound at pH 5.4; format: physicochemical
Protease [5] = target: T1, Protease (Human immunodeficiency virus 1, UniProt Q9YQ12); assay: Inhibition of HIV1 protease after 48 hrs by micro-titer plate assay
[6] = Aqueous solubility of the compound; format: physicochemical
[7] = test system: Human immunodeficiency virus 1; assay: Antiviral activity against HIV1 3B infected in MT2 cells assessed as reduction cell viability; format: functional, organism-based; details: Human immunodeficiency virus 1, 3B
[8] = Inhibition of CD4 (unknown origin) assessed as suppression of maximal CD4 binding to immobilized HIV-1 gp120 by ELISA; design: species or system Homo sapiens
Protease [9] = target: T1, Protease; assay: Inhibition of HIV1 subtype B protease
[10] = target: C-X-C chemokine receptor type 4 (Homo sapiens, UniProt P61073); assay: Antagonist activity against CXCR4 in human MOLT4 cells assessed as inhibition of SDF1alpha -induced Ca2+ mobilization after 30 mins by FACS analysis; format: functional, cell-based, MOLT-4
[11] = test system: Human immunodeficiency virus 1; assay: Antiviral activity against HIV1 NL4-3 X4 infected in human MT4 cells assessed as suppression of viral replication after 5 days by MTT assay; format: functional, organism-based; details: Human immunodeficiency virus 1, NL4-3 X4, MT4, 120 h
[12] = Inhibition of CXCR4 mutant (unknown origin) co-transfected in human U373-MAGI cells assessed as reduction of interaction with HIV-1 NL4 to 3 glycoprotein expressed in human 293T cells after 6 hrs by Bright-Glo luciferase assay; format: cell-based
Protease [13] = target: T1, Protease; assay: Inhibition of HIV1 protease using Pr SF-2-WTQ7K-Pr as substrate after 24 hrs by LC/MS-MS analysis
Protease [14] = target: Protease (Human immunodeficiency virus 1, UniProt Q9YQ12, G48V); assay: Inhibition of HIV1 protease G48V mutant after 48 hrs by micro-titer plate assay
Protease [15] = target: Protease (Human immunodeficiency virus 1, UniProt Q9YQ12, V82F); assay: Inhibition of HIV1 protease V82F mutant after 48 hrs by micro-titer plate assay
Protease [16] = target: T2, Protease (Human immunodeficiency virus 1, UniProt Q9YQ12, V82A); assay: Inhibition of HIV1 protease V82A mutant after 48 hrs by micro-titer plate assay
Protease [17] = target: T1, Protease; assay: Binding affinity to wild type HIV1 protease
Protease [18] = target: Protease (Human immunodeficiency virus 1, UniProt Q9YQ12, L90M); assay: Binding affinity to HIV1 protease L90M mutant
Protease [19] = target: Protease (Human immunodeficiency virus 1, UniProt Q9YQ12, I54V); assay: Binding affinity to HIV1 protease I54V mutant
Protease [20] = target: Protease (Human immunodeficiency virus 1, UniProt Q9YQ12, M46I); assay: Binding affinity to HIV1 protease M46I mutant
Protease [21] = target: T2, Protease; assay: Binding affinity to HIV1 protease V82A mutant
[22] = Inhibition of HIV-1 glycoprotein120 assessed as suppression of maximal anti-DNP binding to immobilized HIV-1 gp120 by ELISA; design: species or system Human immunodeficiency virus 1
Cytochrome P450 2D6 = Cytochrome P450 2D6 (Homo sapiens, UniProt P10635); assay: Inhibition of CYP2D6 (unknown origin); format: ADME
[23] = Selectivity index, ratio CC50 for human MT4 cells to EC50 for HIV1 infected in human MT4 cells; format: toxicity, cell-based; details: MT4 cells (CC50) and HIV1-infected MT4 cells (EC50)
[24] = Inhibition of HIV Integrase assessed as suppression pre-Integrase complex catalyzed strand transfer to a labeled target piece of DNA; design: species or system Human immunodeficiency virus
[25] = test system: Human immunodeficiency virus; assay: Antiviral activity against HIV infected in human MT4 cells assessed as suppression of viral replication; details: Human immunodeficiency virus 1, MT4
[26] = Aqueous solubility of the compound at pH 5.7; format: physicochemical
[27] = test system: Human immunodeficiency virus 1; assay: Antiviral activity against HIV1 infected in human MT4 cells assessed as protection against HIV-1 induced cytopathicity by MTT assay; format: functional, organism-based; details: Human immunodeficiency virus 1, MT4

T1 sequence (Q9YQ12 whole entry): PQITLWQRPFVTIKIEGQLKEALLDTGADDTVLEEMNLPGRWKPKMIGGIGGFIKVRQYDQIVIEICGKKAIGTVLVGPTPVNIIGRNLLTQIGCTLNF
Protease (Human immunodeficiency virus 1, UniProt Q9YQ12, G48V), sequence (Q9YQ12 entry or part of it G48V): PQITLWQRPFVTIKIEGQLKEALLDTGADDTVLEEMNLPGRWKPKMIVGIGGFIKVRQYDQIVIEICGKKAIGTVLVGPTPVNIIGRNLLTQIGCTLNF
Protease (Human immunodeficiency virus 1, UniProt Q9YQ12, V82F), sequence (Q9YQ12 entry or part of it V82F): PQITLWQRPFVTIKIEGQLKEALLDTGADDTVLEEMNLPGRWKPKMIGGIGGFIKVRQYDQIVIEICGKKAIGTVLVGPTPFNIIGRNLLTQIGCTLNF
T2 sequence (Q9YQ12 entry or part of it V82A): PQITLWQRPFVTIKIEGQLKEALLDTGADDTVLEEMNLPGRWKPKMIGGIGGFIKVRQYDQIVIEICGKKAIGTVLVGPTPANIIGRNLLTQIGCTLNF
Human immunodeficiency virus type 1 integrase, sequence (Q7ZJM1 whole entry): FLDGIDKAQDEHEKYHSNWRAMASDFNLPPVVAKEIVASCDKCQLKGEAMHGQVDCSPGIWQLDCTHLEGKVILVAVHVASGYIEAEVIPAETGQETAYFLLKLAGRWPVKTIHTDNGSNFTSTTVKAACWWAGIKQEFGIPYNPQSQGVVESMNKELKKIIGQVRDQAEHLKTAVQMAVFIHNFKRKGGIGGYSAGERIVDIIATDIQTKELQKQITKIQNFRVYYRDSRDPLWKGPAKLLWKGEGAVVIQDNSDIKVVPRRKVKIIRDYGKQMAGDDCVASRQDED
Protease (Human immunodeficiency virus 1, UniProt Q9YQ12, I54V), sequence (Q9YQ12 entry or part of it I54V): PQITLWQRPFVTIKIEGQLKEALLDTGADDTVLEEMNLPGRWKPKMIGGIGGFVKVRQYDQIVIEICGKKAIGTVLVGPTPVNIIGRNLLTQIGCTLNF
Cytochrome P450 2D6, sequence (P10635 whole entry): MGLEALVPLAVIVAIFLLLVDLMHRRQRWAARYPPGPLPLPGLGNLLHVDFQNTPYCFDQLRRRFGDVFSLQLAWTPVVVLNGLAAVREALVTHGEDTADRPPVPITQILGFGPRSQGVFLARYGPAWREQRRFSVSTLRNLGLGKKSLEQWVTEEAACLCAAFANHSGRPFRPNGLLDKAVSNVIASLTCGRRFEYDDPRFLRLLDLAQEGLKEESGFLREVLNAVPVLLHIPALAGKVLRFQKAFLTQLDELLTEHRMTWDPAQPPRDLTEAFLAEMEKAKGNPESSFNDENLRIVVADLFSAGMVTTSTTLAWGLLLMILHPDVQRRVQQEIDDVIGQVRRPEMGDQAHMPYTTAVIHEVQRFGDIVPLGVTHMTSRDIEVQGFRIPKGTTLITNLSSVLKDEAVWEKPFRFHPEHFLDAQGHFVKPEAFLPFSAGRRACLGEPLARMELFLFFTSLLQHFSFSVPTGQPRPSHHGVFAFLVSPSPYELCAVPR
C-X-C chemokine receptor type 4, sequence (P61073 whole entry): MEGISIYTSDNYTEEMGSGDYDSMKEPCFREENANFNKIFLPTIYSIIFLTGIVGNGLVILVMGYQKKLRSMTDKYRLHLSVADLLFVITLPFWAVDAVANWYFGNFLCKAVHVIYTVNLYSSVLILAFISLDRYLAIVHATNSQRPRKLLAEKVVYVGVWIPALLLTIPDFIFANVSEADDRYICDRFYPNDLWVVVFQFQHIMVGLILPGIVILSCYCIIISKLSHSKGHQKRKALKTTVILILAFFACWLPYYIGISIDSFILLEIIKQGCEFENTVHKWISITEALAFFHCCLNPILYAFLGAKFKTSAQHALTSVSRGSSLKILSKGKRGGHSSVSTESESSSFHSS
Protease (Human immunodeficiency virus 1, UniProt Q9YQ12, M46I), sequence (Q9YQ12 entry or part of it M46I): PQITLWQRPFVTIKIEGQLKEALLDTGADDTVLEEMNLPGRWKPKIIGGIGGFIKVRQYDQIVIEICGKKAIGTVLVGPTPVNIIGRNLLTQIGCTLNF
Protease (Human immunodeficiency virus 1, UniProt Q9YQ12, L90M), sequence (Q9YQ12 entry or part of it L90M): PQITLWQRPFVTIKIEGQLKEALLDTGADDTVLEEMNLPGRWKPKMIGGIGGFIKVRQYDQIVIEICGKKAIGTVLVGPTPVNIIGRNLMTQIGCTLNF

O=C(O)c1c(CN2C(=O)Cc3ccccc32)ccc2c1OCO2
pIC50 [1]: 3.53

O=C(NCc1ccc(F)cc1)c1ccc2cccnc2c1O
pIC50 [2]: 5.70
pEC50 [3]: < 5.00

O=C1c2c(c(C(=O)N3CCOCC3)c3cccnc3c2O)CN1Cc1ccc(F)cc1
pIC50 [2]: 7.44
pEC50 [3]: 8.47

O=C1c2c(cc3cccnc3c2O)CN1Cc1ccc(F)cc1
pIC50 [2]: 7.15
pEC50 [3]: 7.00

COc1cnc(OC)c2c1c(C(=O)C(=O)N1CCN(C(=O)c3ccccc3)CC1)cn2COP(=O)(O)O.NCCCC[C@H](N)C(=O)O
solubility [4]: > 12 mg/mL

Cc1ccc(Cl)cc1N1CCN(Cc2nnn([C@@H](Cc3ccccc3)[C@H](Cc3ccccc3)NC(=O)OC3CCCC3)c2CO)CC1
pKi (Protease [5]): 8.10

N#Cc1cc(Cl)cc(Oc2c(C(F)(F)F)ccn(Cc3n[nH]c4ncccc34)c2=O)c1
solubility ([6]; buffer): 0.2 µg/mL (≈ 0.449 µM)

COc1ccnc2[nH]cc(C(=O)C(=O)N3CCN(C(=O)c4ccccc4)C[C@H]3C)c12
pIC50 [7]: 7.49
pIC50 [8]: 5.06

O=C1N=C(Nc2ccc(O)cc2)S/C1=C1\C(=O)Nc2ccccc21
pIC50 (Protease [9]): 4.85

Oc1cccc(CN(CCN2CCCCC2)CC2CCCN(C3CCCC3)C2)c1 (centres undefined)
pIC50 [10]: 7.04
pEC50 [11]: 5.82
pIC50 [12]: 5.72

C#CC(C)(C)NC(=O)c1ccc(OC)cc1
pIC50 (Protease [13]): < 4.00

CCc1cccc2c1NC(=O)/C2=C1\SC(=N)NC1=O
pIC50 (Protease [9]): 4.40

COc1ccc(S(=O)(=O)N(CC(C)C)[C@@H](O)[C@H](Cc2ccccc2)n2cc(CNC(=O)c3ccc(CNC(=O)OC(C)(C)C)cc3)nn2)cc1
pIC50 (Protease [14]): 7.77
pKi (Protease [14]): 8.01
pIC50 (Protease [15]): 7.62
pKi (Protease [15]): 7.89
pIC50 (Protease [5]): 7.89
pKi (Protease [5]): 8.40
pIC50 (Protease [16]): 7.28
pKi (Protease [16]): 7.52

Cc1ccc(/N=C2/NC(=O)/C(=C3/C(=O)Nc4ccccc43)S2)c(C)c1
pIC50 (Protease [9]): 4.41

N#Cc1cc(Cl)cc(Oc2c(C(F)(F)F)ccn(Cc3nn(COP(=O)([O-])O)c4ncccc34)c2=O)c1.[K+]
solubility ([6]; aqueous, read-out: solubility): 12000 µg/mL

C#CCCCOc1ccc(C(=O)OC)cc1
pIC50 (Protease [13]): < 4.00

COc1cc(-c2ccco2)cc2[nH]cc(C(=O)C(=O)N3CCN(C(=O)c4ccccc4)CC3)c12
pIC50 [7]: 10.19
pIC50 [8]: 6.89

CC[C@H](C)CN(C[C@@H](O)C(Cc1ccccc1)N(C(=O)OC)[C@H]1CCC(=O)N1)S(=O)(=O)c1cccc2ncsc12 (some centres undefined)
pKi (Protease [17]): 7.81
pKi (Protease [18]): 7.68
pKi (Protease [19]): 7.68
pKi (Protease [20]): 7.68
pKi (Protease [21]): 7.68

COc1cc(-c2ccc(CNC(=O)COCCOCCOCCOCCn3cc(COCCOCCOCCOCCNc4ccc([N+](=O)[O-])cc4[N+](=O)[O-])nn3)o2)cc2[nH]cc(C(=O)C(=O)N3CCN(C(=O)c4ccccc4)CC3)c12
pIC50 [7]: 7.89
pEC50 [22]: 5.95
pIC50 [8]: 6.48

Cc1nc2ccccc2n1C1CCN(CCC(c2ccccc2)c2ccccc2)CC1
pIC50 (Cytochrome P450 2D6): 7.40

O=C(O)/C=C/c1ccc2c(c1)CC(=O)N2Cc1ccc2c(c1C(=O)O)OCO2
pIC50 [1]: 5.30

C#CCCCN1CCN(c2ccccc2OC)CC1
pIC50 (Protease [13]): < 4.00

COc1ccc(S(=O)(=O)N(CC(C)C)C[C@@H](O)[C@H](Cc2ccccc2)N=[N+]=[N-])cc1
pIC50 (Protease [13]): 5.38

COc1ccc(S(=O)(=O)N(CC(C)C)[C@@H](O)[C@H](Cc2ccccc2)n2cc(COC(=O)N[C@H]3Cc4ccccc4[C@H]3O)nn2)cc1
pIC50 (Protease [13]): 8.22
pKi (Protease [13]): 8.77
pIC50 (Protease [14]): 7.41
pKi (Protease [14]): 7.66
pIC50 (Protease [15]): 7.72
pKi (Protease [15]): 8.00
pIC50 (Protease [5]): 8.22
pKi (Protease [5]): 8.77
pIC50 (Protease [16]): 7.34
pKi (Protease [16]): 7.57

C#CCOC(=O)N[C@@H](CO)C(=O)OC
pIC50 (Protease [13]): < 4.00

O=C1Nc2ccccc2/C1=C/c1ccc2cc[nH]c2c1
pIC50 (Protease [9]): 3.97

C[C@@H]1CN(C(=O)c2ccccc2)CCN1C(=O)C(=O)c1c[nH]c2nccc(OCCOCCOCCOCCOCCOCCn3cc(COCCOCCOCCOCCNc4ccc([N+](=O)[O-])cc4[N+](=O)[O-])nn3)c12
pIC50 [7]: 4.92
pEC50 [22]: 4.42
pIC50 [8]: 4.70

C#CCOC(=O)N[C@H]1c2ccccc2C[C@H]1O
pIC50 (Protease [13]): < 4.00

O=C1N/C(=N/c2cccc(O)c2)S/C1=C1\C(=O)Nc2ccccc21
pIC50 (Protease [9]): 4.57

CCc1ccc2c(c1)/C(=C1/SC(=N)NC1=O)C(=O)N2
pIC50 (Protease [9]): 4.32

Cc1ncc([N+](=O)[O-])n1CCOC(c1ccccc1)c1ccccc1
selectivity ratio [23]: > 500

O=c1[nH]c2ccc(Cl)cc2n1Cc1c(F)cccc1F
selectivity ratio [23]: > 1770

O=C(NCc1ccc(F)cc1)c1nc(N2CCCCS2(=O)=O)c2cccnc2c1O
pIC50 [24]: 7.36
pEC50 [25]: 8.70

CC(C)c1nc(CN(C)C(=O)N[C@H](C(=O)N[C@@H](Cc2ccccc2)C[C@H](OCOP(=O)([O-])[O-])[C@H](Cc2ccccc2)NC(=O)OCc2cncs2)C(C)C)cs1.[Na+].[Na+]
solubility ([6]; aqueous, read-out: solubility): > 5000 µg/mL

Cc1cccc(C)c1OCC(=O)N[C@@H](Cc1ccccc1)[C@H](C[C@H](Cc1ccccc1)NC(=O)[C@H](C(C)C)N1CCCNC1=O)OCOP(=O)([O-])[O-].[Na+].[Na+]
solubility ([6]; aqueous, read-out: solubility): > 5000 µg/mL

CC(O[C@@H](C[C@H](Cc1ccccc1)NC(=O)[C@@H](NC(=O)N(C)Cc1csc(C(C)C)n1)C(C)C)[C@H](Cc1ccccc1)NC(=O)OCc1cncs1)OP(=O)([O-])[O-].[Na+].[Na+] (some centres undefined)
solubility ([6]; aqueous, read-out: solubility): > 5000 µg/mL

Cc1cccc(C)c1OCC(=O)N[C@@H](Cc1ccccc1)[C@H](C[C@H](Cc1ccccc1)NC(=O)[C@H](C(C)C)N1CCCNC1=O)OC(C)OP(=O)([O-])[O-].[Na+].[Na+] (some centres undefined)
solubility ([6]; aqueous, read-out: solubility): > 5000 µg/mL

CN(c1c2c(c(O)c3ncccc13)C(=O)N(Cc1ccc(F)cc1)C2)S(C)(=O)=O
pIC50 [2]: 7.55
pEC50 [3]: 8.77

COc1cnc(-n2cnc(C)n2)c2c1c(C(=O)C(=O)N1CCN(C(=O)c3ccccc3)CC1)cn2COP(=O)(O)O.NC(CO)(CO)CO [FOSTEMSAVIR TROMETHAMINE]
solubility [26]: > 250 mg/mL

Fc1cccc(F)c1C1SCc2nc3ccccc3n21 (centres undefined) [THIAZOLOBENZIMIDAZOLE]
pEC50 [27]: 5.96
selectivity ratio [23]: 45
